Results on 14 molecules are retold here after patent US4551472A, “Unsymmetrical bis-carbamate compounds” (priority 1984, dated 1985).

Broadly, the LD50 is the dose expected to kill half of the subjects tested.

Converted amounts (≈) assume the structure as drawn. A value given as a limit tells only on which side of the number the result lay.

Data set [1] concerns southern armyworm (Spodopera eridania, (Cram.)). Briefly: whole plant or invertebrate. Particulars: Spodoptera eridania, read-out: Biological Activity in LD50's: Southern Armyworm. Here is the method: (§1) The thus-prepared stock suspension contained 0.5 percent by weight of compound. The test concentrations in parts per million by weight employed in the tests described hereinbelow were obtained by appropriate dilutions of the stock suspension with water. The test procedures were as follows:
Larvae of the southern armyworm (Spodopera eridania, (Cram.)), reared on Tendergreen bean plants at a temperature of 80±5° F. and a relative humidity of 50±5 percent, constituted the test insects.
Potted Tendergreen bean plants of standard height and age were placed on a revolving turntable and sprayed with 100-110 milliliters of test compound formulation by use of a DeVilbiss spray gun set at 10 psig air pressure. This application, which lasted 25 seconds, was sufficient to wet plants to run-off. As a control, 100-110 milliliters of a water-acetone-emulsifier solution containing no test compound were also sprayed on infested plants. When dry, the paired leaves were separated and each one was placed in a 9 centimeter Petri dish lined with moistened filter paper. Five randomly selected larvae were introduced into each dish and the dishes were closed. The closed dishes were labeled and held at 80°-85° F. for three days. Although the larvae could easily consume the whole leaf within twenty-four hours, no more food was added. Larvae which were unable to move the length of the body, even upon stimulation by prodding, were considered dead. Percent mortality was recorded for various concentration levels.
(§2) In these tests the pesticidal activity of the compounds at the indicated dosage rate against aphid, mite, Southern Armyworm (SA), Mexican Bean Beetle (MBB), and house fly was rated as follows:
(§3) Several of the unsymmetrical bis-carbamoyl sulfide compounds of this invention were tested against related known compounds.

Data set [2] concerns two-spotted mite (Tetranychus urticae Koch). As to the kind of experiment: whole plant or invertebrate. To be noted: foliar, read-out: Biological Activity in LD50's: Mite. Here is the method: as §1
Adults and nymphal stage of the two-spotted mite (Tetranychus urticae Koch), reared on Tendergreen bean plants at a temperature of 80±5° F. and at a relative humidity of 50±5 percent, were the test organisms. Infested leaves from a stock culture were placed on the primary leaves of two bean plants six to eight inches in height, growing in a two-and-a-half inch clay pot. 150-200 Mites, a sufficient number for testing, transferred from the excised leaves to the fresh plants in a period of twenty-four hours. Following the twenty-four hour transfer period, the excised leaves were removed from the infested plants. […] The potted plants (one pot per compound) were placed on a revolving turntable and sprayed with 100-110 milliliters of test compound formulation by use of a DeVilbiss spray gun at 40 psig. air pressure. This application, which lasted 25 seconds, was sufficient to wet the plants to run-off. As a control, 100-110 milliliters of a water solution containing acetone and emulsifier in the same concentrations as the test compound formulation, but containing no test compound, were also sprayed on infested plants. The sprayed plants were held at a temperature of 80±5° F. and a 50±5 percent relative humidity for six days, after which a mortality count of motile forms was made. Microscopic examination for motile forms was made on the leaves of the test plants. Any individual which was capable of locomotion upon prodding was considered living.
as §2, §3

Data set [3] has as its system bean aphid (Aphis fabae Scop.). Briefly: whole plant or invertebrate. To be noted: foliar, read-out: Biological Activity in LD50's: Aphid. As for the experimental part:
as §1
Adults and nymphal stages of the bean aphid (Aphis fabae Scop.) reared on potted dwarf nasturtium plants at 65°-70° F. and 50-70 percent relative humidity, consistuted with test insects. For testing purposes, the number of aphids per pot was standardized to 100-150 by trimming plants containing excess aphids.
The potted plants (one pot per compound tested) infested with 100-150 aphids, were placed on a revolving turntable and sprayed with 100-110 milliliters of test compound formulation by use of a DeVilbiss spray gun set at 40 psig. air pressure. This application, which lasted 25 seconds, was sufficient to wet the plants to run-off. As a control, 100-110 milliliters of a water-acetone-emulsifier solution containing no test compound were also sprayed on infested plants. […] Temperature and humidity in the test room during the 24 hour holding period were 65°-70° F. and 50-70 percent, respectively. Aphids which fell onto the paper and were unable to remain standing after being uprighted were considered dead. Aphids remaining on the plants were observed closely for movement and those which were unable to move the length of the body upon stimulation by prodding were considered dead. Percent mortality was recorded for various concentration levels.
as §2, §3

Data set [4] has as its system house flies (Musca domestica, L.). As to the kind of experiment: whole plant or invertebrate. To be noted: read-out: Biological Activity in LD50's: Housefly.
Source text: as §1
The flies were immobilized individuals, males and females, were transferred to a cage consisting of a standard food strainer about five inches in diameter which was inverted over a wrapping-paper-covered surface. […] Ten milliliters of the test formulation were added to a souffle cup containing a one-inch square of an absorbent cotton pad. This bait cup was introduced and centered on the blotting paper under the food strainer prior to admitting the anesthetized flies. The caged flies were allowed to feed on the bait for twenty-four hours, at a temperature of 80±5° F. and the relative humidity of 50±5 percent.
as §2, §3

Data set [5] has as its system Mexican bean beetle (Epilachna varivestis, Muls.). As to the kind of experiment: whole plant or invertebrate. Particulars: read-out: Biological Activity in LD50's: MBB. Here is the method: as §1
Fourth instar larvae of the Mexican bean beetle (Epilachna varivestis, Muls.), reared on Tendergreen bean plants at a temperature of 80±5° F. and 50±5 percent relative humidity, were the test insects.
Potted Tendergreen bean plants of standard height and age were placed on a revolving turntable and sprayed with 100-110 milliliters of test compound formulation by use of a DeVilbiss strapy gun set at 10 psig air pressure. This application, which lasted 25 seconds, was sufficient to wet plants to run-off. As a control, 100-110 milliliters of a water-acetone-emulsifier solution containing no test compound were also strayed on infested plants. When dry, the paired leaves were separated and each was placed in a 9 centimeter Petri dish lined with moistened filter paper. Five randomly selected larvae were introduced into each dish, and the dishes were closed. The closed dishes were labeled and held at a temperature of 80±5° F. for three days. Although the larvae could easily consume the leaf within 24 to 48 hours, no more food was added. Larvae which were unable to move the length of the body, even upon stimulation, were considered dead.
as §2, §3

The test system of another data set is Tom. Briefly: Phytotoxicity Test, tomato. To be noted: 2500 ppm spray, ten days.
The test system of the next data set is Corn. As to the kind of experiment: Phytotoxicity Test, corn. Particulars: 2500 ppm spray, ten days.
Another data set deals with Soy. As to the kind of experiment: Phytotoxicity Test, soy. To be noted: 2500 ppm spray, ten days.
In the next data set the test system is Bean. Briefly: Phytotoxicity Test, bean. To be noted: 2500 ppm spray, ten days.
Another data set deals with rat. As to the kind of experiment: Mammalian Toxicity, peroral toxicity to rat. Type of data set: in vivo. Here is the method: (§4) Certain compounds were also evaluated to determine their peroral toxicity to mammals by conventional methods. The representative animal selected for this experiment was the rat.
In another data set the test system is Cotton. Briefly: Phytotoxicity Test, cotton. To be noted: 2500 ppm spray, ten days.
Data set [6] concerns root-knot nematode, Meloidogyne incognita var. acrita. Briefly: Nematocide Test. Also: key: 1: severe galling, equal to untreated plants; 2: moderate galling; 3: light galling; 4: very light galling; 5: no galling, perfect control. In kind it is in vivo. Particulars: 3.33 m.g. per jar; cucumber, approximately 3 weeks. The gist of the method: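 Larvae hatched in soil inoculated with chopped infested cucumber roots (one week, room temperature), then treated with acetone/emulsifier/water formulation, primary screen 3.33 mg compound per jar, and held capped 48 h. Soil then potted and sown to cucumber for about 3 weeks; root galling rated visually.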

Data set [7] can be described thus: Mammalian Toxicity, peroral toxicity to rat. Particulars: in vivo, po, read-out: A.O. Rat LD50. In kind it is in vivo. As for the experimental part:
as §4

Protocol for Corn: (§5) Experiments were also conducted to determine the phytotoxicity of representative compounds with respect to healthy fresh plants. […] The test plants were sprayed in accordance with the procedure described above for the Mite Foliage Spray Test so as to deliver approximately 100 milliliters of test solution to the leaves of each plant tested. The sprayed plants and controls were set aside for approximately one hour to allow the foliage to dry and were then placed in the greenhouse. After ten days the plants were visually inspected to determine the extent of foliage injury. A rating of 1 indicates no perceptible injury; 5 indicates the plant was dead and ratings of 2, 3 and 4 indicate intermediate degrees of injury based upon the number and extent to which leaves were injured.
Protocol for Cotton: as §5
Protocol for Soy: as §5

Consider `CN(SN(C)C(=O)Oc1ccc(C(C)(C)C)cc1)C(=O)Oc1ccc(C(C)(C)C)cc1`, for which the LC50 in data set [1], in data set [2], in data set [3], in data set [4] and in data set [5] was more than 500 µg/mL in each case.

For `CSC(C)=NOC(=O)N(C)SN(C)C(=O)Oc1cccc(C(C)C)c1` [drawing 83], the LC50 in [1] came to 9 µg/mL (≈ 23.3 µM); in [2], 500 µg/mL (≈ 1300 µM); in data set [3], 50 µg/mL (≈ 130 µM); in data set [4] it was 15 µg/mL (≈ 38.9 µM); in data set [5], 9 µg/mL (≈ 23.3 µM).

In the case of `CSC(C)=NOC(=O)N(C)SN(C)C(=O)Oc1cccc2ccccc12` [drawing 86], the LC50 is 6 µg/mL (≈ 15.2 µM) in data set [1]; 500 µg/mL (≈ 1270 µM) in [2]; 8 µg/mL (≈ 20.3 µM) in [3]; 24 µg/mL (≈ 61 µM) in data set [4]; 3 µg/mL (≈ 7.62 µM) in [5].

As to “N-[1-Methylthioacetaldehyde O-(N-methylcarbamoyl)oxime]N-[3-(and 4)-isopropylphenyl-(N-methylcarbamoyloxy)]sulfide [XVII]”, in the data set with Tom, the “Phytotoxicity: Tom” value was 1. For the same molecule, in the data set on Corn, the “Phytotoxicity: Corn” value was 1. Further, the “Phytotoxicity: Soy” value in the data set on Soy worked out at 1. For the same molecule, the “Phytotoxicity: Bean” value with Bean is 1. In addition, the “A.O. Rat LD50” value in the data set with rat stood at 126.0 Mg/Kg. The “Phytotoxicity: Cotton” value with Cotton was determined as 1. Also, in data set [6], the “Biological Activity: Nem (nematode, galling rating)” value (from here on “Biological Activity: Nem”) stood at 4.

For the molecule `CN(SN(C)C(=O)ON=C1SC(C)(C)C(=O)N1C)C(=O)ON=C1CSCCS1` [drawing 88], the LC50 is 29 µg/mL (≈ 62 µM) in data set [1]; 6 µg/mL (≈ 12.8 µM) in data set [2]; more than 500 µg/mL in [3]; 2 µg/mL (≈ 4.28 µM) in data set [4]; 22 µg/mL (≈ 47 µM) in data set [5].

In the case of `CN(SN(C)C(=O)Oc1cccc2ccccc12)C(=O)Oc1cccc2ccccc12`, the LC50 is 80 µg/mL (≈ 185 µM) in data set [1]; more than 500 µg/mL in [2]; more than 500 µg/mL in data set [3]; more than 500 µg/mL in [4]; 6 µg/mL (≈ 13.9 µM) in data set [5].

Turning to `CC(C)c1cccc(OC(=O)N(C)SN(C)C(=O)Oc2cccc(C(C)C)c2)c1`, the LC50 is 62 µg/mL (≈ 149 µM) in [1]; more than 500 µg/mL in data set [2]; 70 µg/mL (≈ 168 µM) in data set [3]; 150 µg/mL (≈ 360 µM) in data set [4]; 11 µg/mL (≈ 26.4 µM) in data set [5].

With `CNC(=O)Oc1ccc(C(C)(C)C)cc1`, the LC50 in data set [1], in data set [2], in data set [3], in data set [4] and in data set [5] was more than 500 µg/mL each time.

Regarding `CSC(C)=NOC(=O)N(C)SN(C)C(=O)Oc1ccc(C(C)(C)C)cc1` [drawing 80], the LC50 is 7 µg/mL (≈ 17.5 µM) in data set [1]; more than 500 µg/mL in [2]; 40 µg/mL (≈ 100 µM) in data set [3]; 35 µg/mL (≈ 87.6 µM) in data set [4]; 9 µg/mL (≈ 22.5 µM) in [5].

Regarding `COC(=O)Nc1ccc(OC(=O)N(C)SN(C)C(=O)ON=C(C)SC)cc1C(C)C` [XVI, N-[1-Methylthioacetaldehyde O-(N-methylcarbamoyl)oxime]N-[4-methoxycarbonylamino-(N-methylcarbamate)-3-isopropylphenyl]sulfide], the “Phytotoxicity: Tom” value in the data set with Tom amounted to 1. Further, the “Phytotoxicity: Corn” value in the data set with Corn is 1. In addition, the “Phytotoxicity: Soy” value with Soy stood at 1. The “Phytotoxicity: Bean” value with Bean is recorded as 1. Further, the median lethal dose (LD50) in data set [7] is 28.3 mg/kg. Further, the “Phytotoxicity: Cotton” value with Cotton was determined as 1. For the same molecule, the “Biological Activity: Nem” value in data set [6] amounted to 4.

For `CNC(=O)ON=C1SC(C)(C)C(=O)N1C`, the LC50 worked out at 30 µg/mL (≈ 130 µM) in [1]; 280 µg/mL (≈ 1210 µM) in data set [2]; 160 µg/mL (≈ 692 µM) in [3]; 25 µg/mL (≈ 108 µM) in data set [4]; 6 µg/mL (≈ 25.9 µM) in data set [5].

Regarding `CSC(C)=NOC(=O)N(C)SN(C)C(=O)Oc1cccc2c1CCCC2` [XIV, N-[1-Methylthioacetaldehyde O-(N-methylcarbamoyl)oxime]N-[1-(N-methylcarbamoyloxy)-5,6,7,8-tetrahydronaphthalene]sulfide], in the data set with Tom, the “Phytotoxicity: Tom” value worked out at 1. Moreover, the “Phytotoxicity: Corn” value in the data set with Corn is listed as 1. The “Phytotoxicity: Soy” value in the data set on Soy amounted to 1. Moreover, the “Phytotoxicity: Bean” value in the data set on Bean came to 1. For the same molecule, the LD50 in [7] was 285 mg/kg. Besides, the “Phytotoxicity: Cotton” value with Cotton is on record as 1. Further, the “Biological Activity: Nem” value in data set [6] was 4.

In the case of `CSC(C)=NOC(=O)N(C)SN(C)C(=O)Oc1cccc2c1OC(C)(C)C2` [Example V, N-[1-Methylthioacetaldehyde O-(N-methylcarbamoyl)oxime]N-[2,2-dimethyl-2,3-dihydro-7-(N-methylcarbamoyloxy)benzofuran]sulfide], the “Phytotoxicity: Tom” value with Tom is reported as 2. For the same molecule, the “Phytotoxicity: Corn” value in the data set on Corn was 1. Also, the “Phytotoxicity: Soy” value with Soy is listed as 2. For the same molecule, the “Phytotoxicity: Bean” value in the data set with Bean is reported as 2. In addition, in [7], the LD50 stood at 15.9 mg/kg. Moreover, the “Phytotoxicity: Cotton” value in the data set with Cotton is given as 2. The “Biological Activity: Nem” value in data set [6] was 5.

In the case of `C#CCOc1ccccc1OC(=O)N(C)SN(C)C(=O)ON=C(C)SC` [XXXIX], in the data set with Tom, the “Phytotoxicity: Tom” value was determined as 1. Also, the “Phytotoxicity: Corn” value in the data set with Corn amounted to 1. Also, the “Phytotoxicity: Soy” value with Soy was determined as 2. In addition, the “Phytotoxicity: Bean” value in the data set with Bean is 1. The LD50 in data set [7] came out at 160 mg/kg. For the same molecule, in the data set with Cotton, the “Phytotoxicity: Cotton” value is 2. Moreover, the “Biological Activity: Nem” value in data set [6] was found to be 3.
